Values after ≈ are worked out from the molar mass of the structure shown.
Experiments:
[1] = Solubility in simulated intestinal fluid by HPLC-UV analysis; format: physicochemical
[2] = Aqueous solubility of the compound in pH 7.4 PBS buffer by HPLC-UV analysis; format: physicochemical
[3] = Solubility in simulated gastric fluid by HPLC-UV analysis; format: physicochemical
[4] = Plasma protein binding in human; format: ADME, cell-free; details: read-out: PPB (converted)
[5] = Plasma protein binding in rat; format: ADME, cell-free; details: read-out: PPB (converted)
[6] = Apparent permeability across apical to basal side in human Caco-2 cells at pH 6.5/7.4 measured at 5 uM by LC-MS/MS analysis; format: ADME, cell-based; details: Caco-2, pH 6.5
[7] = Apparent permeability across basal to apical side in human Caco-2 cells at pH 6.5/7.4 measured at 5 uM by LC-MS/MS analysis; format: ADME, cell-based; details: Caco-2, pH 6.5
[8] = Metabolic stability in human hepatocytes assessed as half life; format: ADME, cell-based, Hepatocyte
[9] = Metabolic stability in rat hepatocytes assessed as half life; format: ADME, cell-based, Hepatocyte
[10] = Metabolic stability in human hepatocytes assessed as intrinsic clearance; format: ADME, cell-based, Hepatocyte; details: read-out: CLH
[11] = Metabolic stability in rat hepatocytes assessed as intrinsic clearance; format: ADME, cell-based, Hepatocyte; details: read-out: CLH
[12] = target: T1, Tryptophan 5-hydroxylase 1 (Homo sapiens, UniProt P17752); experiment: Inhibition of recombinant MBP-tagged full length human THP1 using L-Trp as substrate assessed as formation of 5-HTP by measuring fluorescent property
T1 sequence (P17752 whole entry): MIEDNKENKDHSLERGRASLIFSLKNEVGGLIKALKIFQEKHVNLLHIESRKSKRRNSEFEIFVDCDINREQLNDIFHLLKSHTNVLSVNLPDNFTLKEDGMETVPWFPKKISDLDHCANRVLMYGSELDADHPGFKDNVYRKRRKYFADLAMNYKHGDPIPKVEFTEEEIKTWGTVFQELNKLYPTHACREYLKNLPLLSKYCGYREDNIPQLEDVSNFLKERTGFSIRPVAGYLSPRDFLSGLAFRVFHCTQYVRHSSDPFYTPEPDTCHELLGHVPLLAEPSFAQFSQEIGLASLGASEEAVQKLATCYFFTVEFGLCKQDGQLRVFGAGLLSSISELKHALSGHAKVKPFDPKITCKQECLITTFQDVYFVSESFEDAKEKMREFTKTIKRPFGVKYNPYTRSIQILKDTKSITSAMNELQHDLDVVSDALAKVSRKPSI

[13] = target: T2, Tryptophan 5-hydroxylase 2 (Homo sapiens, UniProt Q8IWU9); experiment: Inhibition of recombinant MBP-tagged full length human THP2 using L-Trp as substrate assessed as formation of 5-HTP by measuring fluorescent property
T2 sequence (Q8IWU9 whole entry): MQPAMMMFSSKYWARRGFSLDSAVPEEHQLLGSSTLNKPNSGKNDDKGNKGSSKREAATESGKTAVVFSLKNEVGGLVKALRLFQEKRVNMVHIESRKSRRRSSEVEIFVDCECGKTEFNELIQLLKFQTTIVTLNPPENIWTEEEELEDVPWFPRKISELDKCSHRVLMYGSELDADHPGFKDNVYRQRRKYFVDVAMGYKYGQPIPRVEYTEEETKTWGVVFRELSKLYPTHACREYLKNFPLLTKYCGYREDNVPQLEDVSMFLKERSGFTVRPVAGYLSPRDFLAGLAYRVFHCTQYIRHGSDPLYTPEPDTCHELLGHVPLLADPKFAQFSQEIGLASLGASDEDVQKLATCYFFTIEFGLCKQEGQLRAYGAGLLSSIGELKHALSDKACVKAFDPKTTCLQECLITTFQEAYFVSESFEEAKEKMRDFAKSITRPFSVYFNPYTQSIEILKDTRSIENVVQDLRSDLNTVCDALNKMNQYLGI

[14] = Permeability across apical to basal side in MDCK-MDR1 cells at pH 6.5/7.4 measured at 5 uM by LC-MS/MS analysis; format: ADME, cell-based, Canis lupus familiaris; details: dog, MDCK-MDR1, pH 6.5
[15] = Permeability across basal to apical side in MDCK-MDR1 cells at pH 6.5/7.4 measured at 5 uM by LC-MS/MS analysis; format: ADME, cell-based, Canis lupus familiaris; details: dog, MDCK-MDR1, pH 6.5

Molecule `CCn1c(=O)[nH]c(=O)c2c1nc(Cc1cn3cc(C)sc3n1)n2Cc1ccccc1` has a solubility [1] of 48.5 µM (≈ 20.4 µg/mL), a solubility [2] of 35.1 µM (≈ 14.8 µg/mL) and a solubility [3] of 177 µM (≈ 74.4 µg/mL). For the same molecule, the fraction unbound [4] was 0.24, the fraction unbound [5] was 0.21 and the Papp A→B at 5 µM [6] was 24.7 ×10⁻⁶ cm/s. For the same molecule, the Papp B→A at 5 µM [7] was 53.9 ×10⁻⁶ cm/s, the half-life [8] was 22 min and the half-life [9] was 13 min. The CLint scaled [10] was 315 mL/min/kg and the CLint scaled [11] was 514 mL/min/kg.

`CCn1c(=O)[nH]c(=O)c2c1nc(Cc1cn3cc(C)sc3n1)n2CCCC(=O)O` showed an IC50 [12] of 690 nM and an IC50 [13] of 69 nM.

`CCn1c(=O)[nH]c(=O)c2c1nc(Cc1cn3cc(C)sc3n1)n2Cc1cccc(C(F)(F)F)c1` showed an IC50 [12] of 157 nM and an IC50 [13] of 41 nM.

In the case of `CCn1c(=O)[nH]c(=O)c2c1nc(Cc1cn3cc(C)sc3n1)n2CCCOC`, the IC50 [12] is reported as 343 nM and the IC50 [13] is reported as 38 nM.

`CCn1c(=O)[nH]c(=O)c2c1nc(Cc1cn3cc(Cl)sc3n1)n2Cc1ccccc1` gave a solubility [1] of 12.7 µM (≈ 5.6 µg/mL), a solubility [2] of 3.7 µM (≈ 1.63 µg/mL) and a solubility [3] of 198 µM (≈ 87.1 µg/mL). It also gave a fraction unbound [4] of 0.23, a fraction unbound [5] of 0.25 and a Papp A→B at 5 µM [6] of 29.4 ×10⁻⁶ cm/s. It also gave a Papp B→A at 5 µM [7] of 47.7 ×10⁻⁶ cm/s, a half-life [8] greater than 60 min and a half-life [9] greater than 60 min. It also gave a CLint scaled [10] of less than 115 mL/min/kg and a CLint scaled [11] of less than 115 mL/min/kg.

`CCn1c(=O)[nH]c(=O)c2c1nc(Cc1cn3cc(C)sc3n1)n2Cc1ccc(C(F)(F)F)cc1` gave an IC50 [12] of 271 nM and an IC50 [13] of 52 nM.

Molecule `CCn1c(=O)[nH]c(=O)c2c1nc(Cc1cn3c(n1)CCCC3)n2CC1COC1` has an IC50 [12] of 772 nM and an IC50 [13] of 57 nM.

Molecule `CCn1c(=O)[nH]c(=O)c2c1nc(Cc1cn3cc(C)sc3n1)n2CCC(=O)OC` has an IC50 [12] of 533 nM and an IC50 [13] of 57 nM.

With `CCn1c(=O)[nH]c(=O)c2c1nc(Cc1cn3c(n1)CCCC3)n2Cc1cccc(C(=O)NC[C@H](N)C(=O)OC)c1` the IC50 [12] was 880 nM and the IC50 [13] was 58 nM.

In the case of `CCn1c(=O)[nH]c(=O)c2c1nc(Cc1cn3cc(C)sc3n1)n2Cc1cccc(C(=O)O)c1`, the IC50 [12] is reported as 357 nM and the IC50 [13] is reported as 58 nM.

Work on `CCn1c(=O)[nH]c(=O)c2c1nc(Cc1cn3cc(Cl)sc3n1)n2Cc1ccc(-c2ccn(C)n2)cc1` yielded a solubility [1] of less than 10 µM, a solubility [2] of less than 10 µM and a solubility [3] of less than 10 µM. It also gave a fraction unbound [4] of 0.11, a fraction unbound [5] of 0.11 and a Papp A→B at 5 µM [6] of 4.9 ×10⁻⁶ cm/s. It also gave a Papp B→A at 5 µM [7] of 59.9 ×10⁻⁶ cm/s, a half-life [8] of 40 min and a half-life [9] of 8 min. The CLint scaled [10] was 174 mL/min/kg and the CLint scaled [11] was 854 mL/min/kg.

For `CCn1c(=O)[nH]c(=O)c2c1nc(Cc1cn3c(n1)CCCC3)n2Cc1cccc(C(=O)NC[C@H](NC(=O)OCc2ccccc2)C(=O)OC)c1`, the IC50 [12] was 380 nM and the IC50 [13] was 63 nM.

Work on `CCc1nc(C)ccc1OCC(=O)N1CCc2nc3n(c2C1c1ccc(Cl)cc1F)CCCC3` (racemic) yielded an IC50 [12] of 151 nM and an IC50 [13] of 51 nM.

`CCn1c(=O)[nH]c(=O)c2c1nc(Cc1cn3cc(C)sc3n1)n2Cc1ccccn1` showed an IC50 [12] of 84 nM and an IC50 [13] of 18 nM.

For `CCn1c(=O)[nH]c(=O)c2c1nc(Cc1cn3cc(C)sc3n1)n2CC1CCNCC1`, the IC50 [12] was greater than 10000 nM and the IC50 [13] was greater than 10000 nM.

`CCn1c(=O)[nH]c(=O)c2c1nc(Cc1cn3cc(C)sc3n1)n2CC1CCN(C)CC1` showed an IC50 [12] greater than 10000 nM and an IC50 [13] greater than 10000 nM.

Work on `CCn1c(=O)[nH]c(=O)c2c1nc(Cc1cn3cc(C)sc3n1)n2CC1CC1` yielded an IC50 [12] of 100 nM, an IC50 [13] of 23 nM and a solubility [2] of 173 µM (≈ 66.5 µg/mL). For the same molecule, the fraction unbound [4] was 0.06, the fraction unbound [5] was 0.17 and the Papp A→B at 5 µM [6] was 1.29 ×10⁻⁶ cm/s. It also gave a Papp B→A at 5 µM [7] of 57 ×10⁻⁶ cm/s, a half-life [8] of 67 min and a t1/2 [9] of 42 min. It also gave a CLint scaled [10] of 19 mL/min/kg, a Papp A→B at 5 µM [14] of 0.45 ×10⁻⁶ cm/s and a Papp B→A at 5 µM [15] of 54 ×10⁻⁶ cm/s.

In the case of `CCn1c(=O)[nH]c(=O)c2c1nc(Cc1cn3ccccc3n1)n2Cc1ccc(-c2ccn(C)n2)cc1`, the solubility [1] is reported as greater than 200 µM, the solubility [2] is reported as greater than 200 µM and the solubility [3] is reported as greater than 200 µM. The fraction unbound [4] was 0.39, the fraction unbound [5] was 0.29 and the Papp A→B at 5 µM [6] was 2.3 ×10⁻⁶ cm/s. The Papp B→A at 5 µM [7] was 46.3 ×10⁻⁶ cm/s, the half-life [8] was greater than 60 min and the half-life [9] was 19 min. The CLint scaled [10] was less than 115 mL/min/kg and the CLint scaled [11] was 367 mL/min/kg.
